Target: BRD4 (Homo sapiens, UniProt O60885)
Test: Time Resolved Fluorescence Resonance Energy Transfer (TR-FRET) binding assay, BRD4
Settings: one of the FRET assays described; read-out: FRET BRD4 IC50

Question: Which IC50 does the source give for [2H]C([2H])([2H])c1nnn(C)c1-c1cnc2c3c(OC)cc(S(C)(=O)=O)cc3n(C(c3ncccc3F)C3CCC(F)(F)CC3)c2c1 (single isomer, unassigned) [Example 213, 2-[(4,4-Difluorocyclohexyl)({7-methanesulfonyl-9-methoxy-3-[4-(^2H3)methyl-1-methyl-1H-1,2,3-triazol-5-yl]-5H-pyrido[3,2-b]indol-5-yl})methyl]-3-fluoropyridine] here?
Answer: < 5 nM

Question: Which IC50 does the source give for [2H]C([2H])([2H])c1nnn(C)c1-c1cnc2c3c(S(C)(=O)=O)cc(F)c(F)c3n([C@H](c3ccccc3)C3CCOCC3)c2c1 [Example 161, 5-{6,7-Difluoro-9-methanesulfonyl-5-[(S)-oxan-4-yl(phenyl)methyl]-5H-pyrido[3,2-b]indol-3-yl}-4-(^2H3)methyl-1-methyl-1H-1,2,3-triazole] here?
Answer: < 5 nM

Question: Which IC50 does the source give for COc1ccc(S(C)(=O)=O)c2c1c1ncc(-c3c(C)noc3C)cc1n2[C@H](c1ccc(F)cc1)C1CCOCC1 [Example 187, 4-{5-[(S)-(4-Fluorophenyl)(oxan-4-yl)methyl]-6-methanesulfonyl-9-methoxy-5H-pyrido[3,2-b]indol-3-yl}-3,5-dimethyl-1,2-oxazole] here?
Answer: < 5 nM

Question: With Cc1noc(C)c1-c1cnc2c3ccc(C(C)(C)O)cc3n(C(c3cccc(F)c3F)C3CCOCC3)c2c1 (single isomer, unassigned) [Example 146, 2-{5-[(2,3-Difluorophenyl)(oxan-4-yl)methyl]-3-(dimethyl-1,2-oxazol-4-yl)-5H-pyrido[3,2-b]indol-7-yl}propan-2-ol] as the molecule, how does the IC50 read?
Answer: < 5 nM

Question: For Cc1noc(C)c1-c1cnc2c3ccc(C(C)(C)O)cc3n([C@@H](CCC(F)(F)F)c3ccccc3)c2c1 [Example 9], which IC50 is on record?
Answer: < 5 nM

Question: How did the IC50 turn out when Cc1nnn(C)c1-c1cnc2c3ccc(C(C)(C)O)cc3n(C(c3c(F)cccc3F)C3CCOCC3)c2c1 (single isomer, unassigned) [Example 134, 2-{5-[(2,6-Difluorophenyl)(oxan-4-yl)methyl]-3-(dimethyl-1H-1,2,3-triazol-5-yl)-5H-pyrido[3,2-b]indol-7-yl}propan-2-ol] was run?
Answer: < 5 nM

Question: How did the IC50 turn out when CCOC(=O)Nc1ccc2c3ncc(-c4c(C)nnn4C)cc3n([C@H](c3ccccc3)C3CCOCC3)c2c1 [Example 366, Ethyl N-[3-(dimethyl-1H-1,2,3-triazol-5-yl)-5-[(S)-oxan-4-yl(phenyl)methyl]-5H-pyrido[3,2-b]indol-7-yl]carbamate] was run?
Answer: < 5 nM

Question: With COc1ccc(S(C)(=O)=O)c2c1c1ncc(-c3c(C)noc3C)cc1n2[C@H](c1ccccc1F)C1CCOCC1 [Example 186, 4-{5-[(S)-(2-Fluorophenyl)(oxan-4-yl)methyl]-6-methanesulfonyl-9-methoxy-5H-pyrido[3,2-b]indol-3-yl}-3,5-dimethyl-1,2-oxazole] as the molecule, how does the IC50 read?
Answer: < 5 nM

Question: How did the IC50 turn out when Cc1nnn(C)c1-c1cnc2c3ccc(NC(=O)OC(C)C)cc3n([C@H](c3ccccc3)C3CCOCC3)c2c1 [Example 367, Propan-2-yl N-[3-(dimethyl-1H-1,2,3-triazol-5-yl)-5-[(S)-oxan-4-yl(phenyl)methyl]-5H-pyrido[3,2-b]indol-7-yl]carbamate] was run?
Answer: < 5 nM

Question: COCc1nnn(C)c1-c1cnc2c3ccc(C(C)(C)O)cc3n([C@H](c3ccccc3)C3CCOCC3)c2c1 [Example 89, 2-{3-[4-(Methoxymethyl)-1-methyl-1H-1,2,3-triazol-5-yl]-5-[(S)-oxan-4-yl(phenyl)methyl]-5H-pyrido[3,2-b]indol-7-yl}propan-2-ol] was tested. Which IC50 did it give?
Answer: < 25 nM

Question: How did the IC50 turn out when Cc1cccc(C(C2CCOCC2)n2c3cc(C(C)(C)O)ccc3c3ncc(-c4c(C)nnn4C)cc32)n1 (single isomer, unassigned) [Example 295] was run?
Answer: < 5 nM

Question: How did the IC50 turn out when Cn1nnc(N)c1-c1cnc2c3ccc(C(C)(C)O)cc3n([C@H](c3ccccc3)C3CCOCC3)c2c1 [Example 389, 2-[3-(4-Amino-1-methyl-1H-1,2,3-triazol-5-yl)-5-[(S)-oxan-4-yl(phenyl)methyl]-5H-pyrido[3,2-b]indol-7-yl]propan-2-ol] was run?
Answer: < 5 nM

Question: How did the IC50 turn out when Cc1nnn(C)c1-c1cnc2c3ccc(C(C)(C)O)cc3n([C@H](c3ccccn3)C3CCOCC3)c2c1 [Example 62] was run?
Answer: < 25 nM

Question: For Cc1noc(C)c1-c1cnc2c3ccc(C(C)(C)O)cc3n(C(c3ccccc3)C3(F)CCC3)c2c1 (single isomer, unassigned) [Example 32, 2-[3-(Dimethyl-1,2-oxazol-4-yl)-5-[(1-fluorocyclobutyl)(phenyl)methyl]-5H-pyrido[3,2-b]indol-7-yl]propan-2-ol], which IC50 is on record?
Answer: < 5 nM

Question: For Cc1nnn(C)c1-c1cnc2c3ccc(C(C)(C)O)cc3n(C(c3ccc(Cl)cc3)C3CCOCC3)c2c1 (single isomer, unassigned) [Example 398], which IC50 is on record?
Answer: < 5 nM

Question: With CNc1nnn(C)c1-c1cnc2c3ccc(C(C)(C)O)cc3n([C@H](c3ccccc3)C3CCOCC3)c2c1 [Example 390, 2-{3-[1-Methyl-4-(methylamino)-1H-1,2,3-triazol-5-yl]-5-[(S)-oxan-4-yl(phenyl)methyl]-5H-pyrido[3,2-b]indol-7-yl}propan-2-ol] as the molecule, how does the IC50 read?
Answer: < 5 nM

Question: Which IC50 does the source give for Cc1noc(C(C2CCOCC2)n2c3cc(C(C)(C)O)ccc3c3ncc(-c4c(C)nnn4C)cc32)n1 (single isomer, unassigned) [Example 299] here?
Answer: < 5 nM

Question: With [2H]C([2H])([2H])c1nnn(C)c1-c1cnc2c3c(F)cc(S(C)(=O)=O)cc3n([C@H](c3ccc(F)cc3)C3CCOCC3)c2c1 [Example 201, 5-{9-Fluoro-5-[(S)-(4-fluorophenyl)(oxan-4-yl)methyl]-7-methanesulfonyl-5H-pyrido[3,2-b]indol-3-yl}-4-(^2H3)methyl-1-methyl-1H-1,2,3-triazole] as the molecule, how does the IC50 read?
Answer: < 5 nM

Question: [2H]C([2H])([2H])c1nnn(C)c1-c1cnc2c3ccc(C(C)(C)O)cc3n(C(c3ncccc3F)C3CCOCC3)c2c1 (single isomer, unassigned) [Example 315] was tested. Which IC50 did it give?
Answer: < 5 nM

Question: Cn1nncc1-c1cnc2c3ccc(S(C)(=O)=O)cc3n([C@H](c3ccccc3)C3CCOCC3)c2c1 [Example 453, 5-{7-Methanesulfonyl-5-[(S)-oxan-4-yl(phenyl)methyl]-5H-pyrido[3,2-b]indol-3-yl}-1-methyl-1H-1,2,3-triazole] was tested. Which IC50 did it give?
Answer: < 5 nM

Question: For Cc1noc(C)c1-c1cnc2c3ccc(C(C)(C)O)cc3n(C(C3CCC3)C3CCC3)c2c1 [Example 31, 2-[5-(Dicyclobutylmethyl)-3-(dimethyl-1,2-oxazol-4-yl)-5H-pyrido[3,2-b]indol-7-yl]propan-2-ol], which IC50 is on record?
Answer: < 5 nM

Question: For Cc1nnn(C)c1-c1cnc2c3ccc(CS(C)(=O)=O)cc3n([C@@H](c3ccc(Cl)cn3)C3CCOCC3)c2c1 [Example 334], which IC50 is on record?
Answer: < 5 nM

Question: Cc1noc(C)c1-c1cnc2c3ccc(C(C)(C)O)c(F)c3n(C(c3ccc(F)cc3)C3CCOCC3)c2c1 (single isomer, unassigned) [Example 80, 2-[3-(Dimethyl-1,2-oxazol-4-yl)-6-fluoro-5-[(4-fluorophenyl)(oxan-4-yl)methyl]-5H-pyrido[3,2-b]indol-7-yl]propan-2-ol] was tested. Which IC50 did it give?
Answer: < 25 nM

Question: How did the IC50 turn out when COc1cc(F)c(C(C2CCOCC2)n2c3cc(C(C)(C)O)ccc3c3ncc(-c4c(C)nnn4C)cc32)cc1F (single isomer, unassigned) [Example 123, 2-{5-[(2,5-Difluoro-4-methoxyphenyl)(oxan-4-yl)methyl]-3-(dimethyl-1H-1,2,3-triazol-5-yl)-5H-pyrido[3,2-b]indol-7-yl}propan-2-ol] was run?
Answer: < 5 nM

Source: patent US10112941B2, “Tricyclic compounds as anticancer agents” (BRISTOL-MYERS SQUIBB COMPANY, priority 2013, dated 2018)
